Data on seven compounds can be found in ChEMBL document CHEMBL1817644, “Rational design of SAM analogues targeting SAM-II riboswitch aptamer” (Bioorg Med Chem Lett, 2011).

Assay type in all cases: nucleic-acid assay
Assay [1] deals with Nucleic Acid. Description: Binding affinity to 2-amino purine labelled SAM2 riboswitch aptamer assessed as change in fluorescence at 5 mM to 10 mM at pH 8.3 by fluorescence binding assay.
Assay [2] concerns Nucleic Acid. Description: Ratio of S-adenosylmethionine Kd to compound Kd for SAM2 riboswitch aptamer.
Assay [3] concerns Nucleic Acid. Nature of the assay: Binding affinity to SAM1 riboswitch aptamer assessed as change in heat at 0.5 mM at pH 7.5 by Isothermal titration calorimetry. (In general: ITC needs no label: the signal is the heat of the interaction.)

The structures appear in SMILES notation. Activity calls are given as the source filed them. No cut-off for these calls is given here.

As to `C[S+](CC[C@H](NC(=O)CNCCN)C(=O)O)C[C@H]1O[C@@H](n2cnc3c(N)ncnc32)[C@H](O)[C@@H]1O` (stereo not given in full), the outcome with Nucleic Acid [1] was inactive. By Kd is commonly meant the constant that tells how readily two partners part at equilibrium. For the compound `C[S+](CC[C@H](N)C(=O)[O-])C[C@H]1O[C@@H](n2cnc3c(N)ncnc32)[C@H](O)[C@@H]1O` (stereo not given in full) [ADEMETIONINE], in the assay on Nucleic Acid [1], the outcome was Active and the Kd amounted to 6 µM. Take `C[S+](CC[C@H](NC(=O)CN)C(=O)O)C[C@H]1O[C@@H](n2cnc3c(N)ncnc32)[C@H](O)[C@@H]1O` (stereo not given in full): the result with Nucleic Acid [1] was inactive. For `CN1/C(=C\c2cc[n+](CCCC(=O)N[C@@H](CC[S+](C)C[C@H]3O[C@@H](n4cnc5c(N)ncnc54)[C@H](O)[C@@H]3O)C(=O)O)c3ccccc23)Sc2ccccc21` (stereo not given in full), the Ratio with Nucleic Acid [2] is 2. The outcome in the assay on Nucleic Acid [1] was Active.

`C[S+](CC[C@H](N)C(=O)NCCN)C[C@H]1O[C@@H](n2cnc3c(N)ncnc32)[C@H](O)[C@@H]1O` (stereo not given in full): the Kd on Nucleic Acid [1] was determined as 3.1 µM. For the same compound, in the assay with Nucleic Acid [3], the result was inactive. Turning to `Nc1ncnc2c1ncn2[C@@H]1O[C@H](CSCC[C@H](N)C(=O)O)[C@@H](O)[C@H]1O`, in the assay on Nucleic Acid [1], the result was inactive. The same measure, in the same setting: to `C[S+](CC[C@H](NC(=O)CCN)C(=O)O)C[C@H]1O[C@@H](n2cnc3c(N)ncnc32)[C@H](O)[C@@H]1O` (stereo not given in full) belongs “inactive”.
